Measurements published in PMC11397024, “Strategic Fluorination to Achieve a Potent, Selective, Metabolically Stable, and Orally Bioavailable Inhibitor of CSNK2” (Molecules, 2024).
Read-outs that look alike come from different tables or passages of the source. Marks after values point to notes of the source that are not given here.

Experiments:
CSNK2A2 = biological target: T1, CSNK2A2 (Homo sapiens, UniProt P19784); design: method as in PMID 37901516; conditions: NanoBRET; cited from earlier work
T1 construct: expressed in transfected cells; host or cells: HEK293
T1 sequence (P19784 whole entry): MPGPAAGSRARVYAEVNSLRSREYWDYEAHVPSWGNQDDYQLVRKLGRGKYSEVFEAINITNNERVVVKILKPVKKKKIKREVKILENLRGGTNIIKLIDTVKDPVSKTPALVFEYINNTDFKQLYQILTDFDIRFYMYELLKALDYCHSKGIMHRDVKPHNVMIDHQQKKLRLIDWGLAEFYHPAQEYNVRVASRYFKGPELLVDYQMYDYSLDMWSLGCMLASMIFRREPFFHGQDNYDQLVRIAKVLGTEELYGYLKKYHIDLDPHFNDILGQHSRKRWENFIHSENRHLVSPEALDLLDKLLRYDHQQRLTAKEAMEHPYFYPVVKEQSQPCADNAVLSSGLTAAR

[1] = Liver microsomal stability, human; type: in vitro ADME; conditions: pH 7.4, human liver microsomes, five time points over 1 h, read-out: HLM CLint
CSNK2A1 = biological target: T2, CSNK2A1 (Homo sapiens, UniProt P68400); design: method as in PMID 37901516; conditions: NanoBRET; cited from earlier work
T2 construct: expressed in transfected cells; host or cells: HEK293
T2 sequence (P68400 whole entry): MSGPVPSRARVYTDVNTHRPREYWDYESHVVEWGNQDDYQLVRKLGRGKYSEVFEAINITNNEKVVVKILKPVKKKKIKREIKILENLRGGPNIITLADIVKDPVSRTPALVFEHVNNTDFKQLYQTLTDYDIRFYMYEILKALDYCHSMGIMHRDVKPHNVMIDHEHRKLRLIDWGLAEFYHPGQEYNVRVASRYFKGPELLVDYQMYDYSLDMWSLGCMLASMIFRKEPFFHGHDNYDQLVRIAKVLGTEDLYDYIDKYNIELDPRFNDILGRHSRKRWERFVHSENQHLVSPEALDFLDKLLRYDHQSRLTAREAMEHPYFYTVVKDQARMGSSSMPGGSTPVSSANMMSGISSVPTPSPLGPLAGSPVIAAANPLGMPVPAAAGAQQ

SARS-CoV-2 = SARS-CoV-2 assay in A549-ACE2 cells; type: cell-based; conditions: Severe acute respiratory syndrome coronavirus 2, triplicate, read-out: SARS-CoV-2 pIC50 (converted)
[2] = tested on: mouse hepatitis virus (MHV); design: method as in PMID 37901516; conditions: cited from earlier work
[3] = cited from earlier work
[4] = cited from earlier work; remark: listed apart in the source
[5] = cited from earlier work; remark: listed apart in the source
[6] = CellTiter-Glo cytotoxicity assay; type: cell-based, Human; conditions: human, A549-ACE2 cells, 48 h, CellTiter-Glo, quadruplicate
Experimental: A549-ACE2 cells were maintained in low-glucose DMEM (Gibco, Waltham, MA, USA) supplemented with 10% FBS, 1% NEAA, and 1% L-glutamine. No antibiotics were used. Cells were plated at 2000 cells/well in a 384-well plate (Costar, Glendale, AZ, USA) and incubated overnight (37 °C, 5% CO2) before adding the compound. Compounds were added in quadruplicate and incubated for 48 h. DMSO percentage was constant across all concentrations of the compound. Cell viability was measured using CellTiter-Glo2 (Promega, Madison, WI, USA) and the luminescence signal was read on a GloMax plate reader (Promega, Madison, WI, USA). Dose–response analysis was performed using GraphPad Prism.

[7] = Hepatocyte stability, human; type: in vitro ADME; conditions: cryopreserved hepatocytes, over 2 h
Experimental: Human cryopreserved hepatocytes were supplied by BioIVT (lot QZW, 10 pooled donors, Westbury, NY, USA). Mouse cryopreserved hepatocytes were supplied by BioIVT (lot ZPG, pooled male CD-1). Vials of cryopreserved hepatocytes were removed from storage and thawed in a 37 °C water bath with gentle shaking, and then the contents were poured into a 50 mL thawing medium conical tube. Vials were centrifuged at 100× g for 10 min at room temperature. The thawing medium was aspirated, and hepatocytes were resuspended with a serum-free incubation medium to yield ~1.5 × 10^6 cells/mL. Cell viability and density were counted using AO/PI fluorescence staining, and then cells were diluted with a serum-free incubation medium to a working cell density of 0.5 × 10^6 viable cells/mL. Aliquots of 198 μL of hepatocytes were dispensed into each well of a 96-well noncoated plate. The plate was placed in an incubator for approximately 10 min. […] Peak areas were determined from extracted ion chromatograms, and the slope value, k, was determined by linear regression of the natural logarithm of the remaining percentage of the parent drug vs. incubation time curve. The intrinsic clearance (CLint in μL/min/10^6 cells) was calculated using the relationship CLint = kV/N, where V is the incubation volume (0.2 mL) and N is the number of hepatocytes per well (0.1 × 10^6 cells). […]

[8] = tested on: mouse hepatitis virus (MHV); assay: MHV assay (MHV-nLuc in DBT cells); conditions: read-out: IC50 for the assay; MHV-nLuc, DBT cells; positive control
Experimental: DBT cells were cultured at 37 °C in Dulbecco’s modified Eagle medium (DMEM; Sigma-Aldrich, St. Louis, MO, USA) supplemented with 10% fetal bovine serum (FBS; Avantor, Randor, PA, USA) and penicillin and streptomycin (Sigma-Aldrich, St. Louis, MO, USA). DBT cells were plated in 96-well plates to be 80% confluent at the start of the assay. Test compounds or positive control EIDD-1931 were diluted to 15 μM in DMEM. Serial 4-fold dilutions were made in DMEM, providing a concentration range of 15–0.22 μM. Media were aspirated from the DBT cells, and 100 μL of the diluted test compounds was added to the cells for 1 h at 37 °C. After 1 h, MHV-nLuc5 was added at an MOI of 0.1 in 50 μL of DMEM so that the final concentration of the first dilution of the compound was 10 μM (T = 0). After 10 h, the media were aspirated, and the cells were washed with PBS and lysed with passive lysis 5X buffer (Promega, Madison, WI, USA) for 20 min at room temperature. Relative light units (RLUs) were measured using a luminometer (Promega; GloMax, Madison, WI, USA). Triplicate data were analyzed in GraphPad Prism version 9.4.1 for macOS to generate IC50 values.

[9] = cited from earlier work; remark: listed apart in the source

SMILES: CCC(=O)Nc1cc(Nc2cc(NC3CC3)n3ncc(C#N)c3n2)ccc1N1CCC[C@H](NC)C1 [Compound 1]
- CSNK2A2 pIC50 (CSNK2A2): 7.7 ^f
- CLint scaled at 5 μM [1]: 12.5 mL/min/kg
- CSNK2A1 pIC50 (CSNK2A1): 7.6 ^f
- IC50 (SARS-CoV-2): 631 nM
- MHV pIC50 [2]: 6.9 ^f
- Mouse Hepatocytes CLint [3]: 143 mL/min/kg
- Kinetic Solubility ([4]; pH 7.4): 71 ^f μg/mL
- AUClast ([5]; mouse plasma, 10 mg/kg i.p.): 7.01 µM·h
- Cmax ([5]; mouse plasma, 10 mg/kg i.p.): 4.71 µM
- Tmax ([5]; mouse plasma, 10 mg/kg i.p.): 0.25 h
- t1/2 ([5]; mouse, in vivo, ip, 10 mg/kg): 1.2 h
- AUClast ([5]; mouse, in vivo, iv, 1 mg/kg): 1.4 µM·h
- Vdss ([5]; mouse, in vivo, iv, 1 mg/kg): 2.6 L/kg
- t1/2 ([5]; mouse, in vivo, iv, 1 mg/kg): 1.3 h
- viability at 48 h, 0.1 µM ([6]; 0.1 μM): 100%
- viability at 48 h, 1 µM ([6]; 1.0 μM): 79%
- CLint scaled at 1 μM [7]: 4.1 mL/min/kg

SMILES: O=c1nc(NO)ccn1[C@@H]1O[C@H](CO)[C@@H](O)[C@H]1O [EIDD-1931, reference compound]
- IC50 [8]: 1200 nM

SMILES: CCC(=O)Nc1cc(Nc2cc(NC3CC3)n3ncc(C#N)c3n2)ccc1C [SGC-CK2-1, reference compound]
- stability in mouse liver microsomes [9]: poor stability in mouse liver microsomes
- solubility [4]: poor solubility
